Results reported in patent publication US20260167659A1, “STING AGONISTS” (LIGACHEM BIOSCIENCES INC., priority 2022, published 2026).
pEC50: −log10 of the molar value.

Columns and labels:
hSTING-WT (R232) = target: T1, hSTING-WT (R232) (Homo sapiens, UniProt Q86WV6, H232R); test: STING activation, THP1-Dual IRF3 reporter assay, hSTING-R232 cells; format: cell-based; conditions: IRF3 luciferase reporter, 24 hours, read-out: STING activity using hSTING-R232 cells EC50
T1 construct: host or cells: THP1-Dual cells (human monocytes) with knocked-in hSTING R232
T1 sequence (Q86WV6 whole entry H232R): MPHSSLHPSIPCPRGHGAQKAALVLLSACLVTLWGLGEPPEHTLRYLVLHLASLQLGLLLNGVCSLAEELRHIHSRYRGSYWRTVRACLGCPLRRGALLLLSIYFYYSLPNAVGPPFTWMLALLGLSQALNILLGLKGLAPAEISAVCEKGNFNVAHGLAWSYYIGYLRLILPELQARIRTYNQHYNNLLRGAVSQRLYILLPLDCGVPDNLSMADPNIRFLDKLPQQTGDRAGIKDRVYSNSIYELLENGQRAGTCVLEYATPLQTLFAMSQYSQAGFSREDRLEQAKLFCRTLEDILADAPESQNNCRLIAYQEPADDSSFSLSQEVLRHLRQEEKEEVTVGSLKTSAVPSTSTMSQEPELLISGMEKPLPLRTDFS
Procedure: (§1) To assess potency of STING agonist compounds described herein, THP1-Dual™ Cells (NF—KB-SEAP and IRF-Lucia luciferase reporter monocytes, InvivoGen) were used. The reporter cells were knocked-in either of hSTING-WT (R232, #thpd-r232), HAQ variant (#thpd-nfis), or H232 variant (#thpd-h232). All cells were cultured at 37° C. in a humidified incubator at 5% CO2 and maintained in RPMI 1640 medium (Gibco, #22400097) supplemented with 10% heat-inactivated FBS and 1×Pen-Strep (Gibco, #15140122). To measure STING agonist-mediated IRF3 activity, the cells (9.0×10^4 cells per well) were seeded in a flat-bottomed 96-well plate. The next day, the cells were treated with compounds in a serial dilution for 24 hours. Subsequently, 20 μL of the cell culture supernatant and 50 μL of the QUANTI-Luc™ reagent (InvivoGen, #rep-qlc) were mixed in a 96-well white plate and then, luciferase activity was measured using an EnVision Xcite multilabel reader. The data were analyzed using Prism8 software (4-parameter).
(§2) The potency of STING agonist compounds was evaluated by the activation of Type I Interferon pathway using THP-1 IRF3 reporter assay.

human STING = target: T2, human STING (Homo sapiens, UniProt Q86WV6, H232R); test: Direct STING binding, HUMAN STING WT BINDING KIT (Cisbio); conditions: direct binding to human STING WT protein in vitro; read-out: Binding potency EC50
T2 construct: purchased Cisbio 64BDSTGPEG
T2 sequence (Q86WV6 whole entry H232R): as above
Excerpt: Additionally, for analysis of direct binding potency of STING agonist compounds described herein to human STING, HUMAN STING WT BINDING KIT (Cisbio, #64BDSTGPEG) was used according to the manufacture's instruction.

hSTING HAQ variant = target: T3, hSTING HAQ variant (Homo sapiens, UniProt Q86WV6, G230A/H232R/R293Q/R71H); test: STING activation, THP1-Dual IRF3 reporter assay, hSTING-HAQ cells; format: cell-based; conditions: IRF3 luciferase reporter, 24 hours, read-out: STING activity using hSTING-HAQ cells, HAQ EC50
T3 construct: host or cells: THP1-Dual cells (human monocytes)
T3 sequence (Q86WV6 whole entry R71H/G230A/H232R/R293Q): as the sequence (Q86WV6 whole entry H232R) above, with R71H, G230A, R293Q counted along it
Procedure: as §1, §2

hSTING H232 variant = target: T4, hSTING H232 variant (Homo sapiens, UniProt Q86WV6); test: STING activation, THP1-Dual IRF3 reporter assay, hSTING-H232 cells; format: cell-based; conditions: IRF3 luciferase reporter, 24 hours, read-out: STING activity using hSTING-H232 cells, H232 EC50
T4 construct: host or cells: THP1-Dual cells (human monocytes) with knocked-in hSTING H232
Procedure: as §1, §2

[1] = Normal cell cytotoxicity in PBMCs, CellTiter-Glo; format: cell-based; conditions: human, read-out: In vitro cell cytotoxicity in PBMCs CC50
Procedure: PBMCs were also purchased from […]™ (#700025.2). The cells (8.0×10^4 cells per well) were seeded in a flat-bottomed 96-well plate in RPMI 1640 medium (Gibco, #22400097) with 10% heat-inactivated FBS and 1× Antibiotic-Antimycotic (Gibco, #15240062) and rested for 24 hours at 37° C. […] After 72 hours, the cell viability was measured using CellTiter-Glo Luminescent Cell Viability Assay (Promega, #G7573) according to the manufacture's instruction. The signal was detected using an EnVision Xcite multilabel reader and data were analyzed using GraphPad Prism 8 software.
To verify the effect of the STING agonist compounds in normal cell cytotoxicity, the PBMCs were treated with the STING agonist compounds for 3 days and measured the percentage of cell death.

| Compound | pEC50 (hSTING-WT (R232)) | pEC50 (human STING) | further results |
| --- | --- | --- | --- |
| CCn1nc(C)cc1C(=O)Nc1nc2cc(C(N)=O)cc(OC)c2n1C/C=C/Cn1c(NC(=O)c2cc(C)nn2CC)nc2cc(C(N)=O)cc(OC/C=C/Cn3cc(NC(=O)OCc4ccc(O[C@@H]5O[C@H](C(=O)O)[C@@H](O)[C@H](O)[C@H]5O)c(C(=O)NCCCn5cc(CCOP(=O)(O)O)nn5)c4)cn3)c21 [Compound 357] | 7.30 | 9.85 |  |
| CCn1nc(C)cc1C(=O)Nc1nc2cc(C(N)=O)cc(OC)c2n1C/C=C/Cn1c(NC(=O)c2cc(C)nn2CC)nc2cc(C(N)=O)cc(OC/C=C/Cn3cc(NCCC(=O)OC)cn3)c21 [Compound 174] | 7.35 |  |  |
| CCn1nc(C)cc1C(=O)Nc1nc2cc(C(N)=O)cc(OC/C=C/Cn3cc(NC(=O)OCc4ccc(O[C@@H]5O[C@H](C(=O)O)[C@@H](O)[C@H](O)[C@H]5O)c(C(=O)NCCOCCOCCO)c4)cn3)c2n1C/C=C/Cn1c(NC(=O)c2cc(C)nn2CC)nc2cc(C(N)=O)cc(OCCCC(=O)O)c21 [Compound 316] | 7.05 |  | pEC50 (hSTING HAQ variant): 6.40; pEC50 (hSTING H232 variant): 6.60; CC50 at 72 h [1]: 207 nM |
| CCn1nc(C)cc1C(=O)Nc1nc2cc(C(N)=O)cc(OC)c2n1C/C=C/Cn1c(NC(=O)c2cc(C)nn2CC)nc2cc(C(N)=O)cc(OC/C=C/Cn3cc(NC(=O)OCc4ccc(O[C@@H]5O[C@H](C(=O)O)[C@@H](O)[C@H](O)[C@H]5O)c(C(=O)NCCC(=O)NC(CC(=O)O)CC(=O)O)c4)cn3)c21 [Compound 328] | 7.09 | 10.40 |  |
| CCn1nc(C)cc1C(=O)Nc1nc2cc(C(N)=O)cc(OC)c2n1C/C=C/Cn1c(NC(=O)c2cc(C)nn2CC)nc2cc(C(N)=O)cc(OC/C=C/CN(CCCNC(=O)OCc3ccc(O[C@@H]4O[C@H](C(=O)O)[C@@H](O)[C@H](O)[C@H]4O)c(C(=O)NCCOCCOCCN4CCOCC4)c3)C(=N)N)c21 [Compound 332] | 6.24 |  |  |
| CCn1nc(C)cc1C(=O)Nc1nc2cc(C(N)=O)cc(OC)c2n1C/C=C/Cn1c(NC(=O)c2cc(C)nn2CC)nc2cc(C(N)=O)cc(OC/C=C/Cn3cc(NC(=O)OCc4ccc(O[C@@H]5O[C@H](C(=O)O)[C@@H](O)[C@H](O)[C@H]5O)c(C(=O)NCCOCCOCCN)c4)cn3)c21 [Compound 372] | 7.26 |  |  |
| CCn1nc(C)cc1C(=O)Nc1nc2cc(C(N)=O)cc(OC/C=C/Cn3cc(NC(=O)OCc4ccc(O[C@@H]5O[C@H](C(=O)O)[C@@H](O)[C@H](O)[C@H]5O)c(C(=O)NCCOCCOCCN(C)C)c4)cn3)c2n1C/C=C/Cn1c(NC(=O)c2cc(C)nn2CC)nc2cc(C(N)=O)cc(OC/C=C/Cn3cc(NC(=O)OCc4ccc(O[C@@H]5O[C@H](C(=O)O)[C@@H](O)[C@H](O)[C@H]5O)c(C(=O)NCCOCCOCCN(C)C)c4)cn3)c21 [Compound 359] | 6.33 | 9.77 |  |
| CCn1nc(C)cc1C(=O)Nc1nc2cc(C(N)=O)cc(OC)c2n1C/C=C/Cn1c(NC(=O)c2cc(C)nn2CC)nc2cc(C(N)=O)cc(OC/C=C/CN3CCN(C(=O)OCc4ccc(O[C@@H]5O[C@H](C(=O)O)[C@@H](O)[C@H](O)[C@H]5O)c(C(=O)NCCOC)c4)CC3=O)c21 [Compound 417] | 7.61 |  |  |
| CCn1nc(C)cc1C(=O)Nc1nc2cc(C(N)=O)cc(OC/C=C/Cn3cc(NC(=O)OCc4ccc(OC5O[C@H](C(=O)O)[C@@H](O)[C@H](O)[C@H]5O)c(C(=O)NCCOCCOCCN(C)C)c4)cn3)c2n1C/C=C/Cn1c(NC(=O)c2cc(C)nn2CC)nc2cc(C(N)=O)cc(OCCCS(C)(=O)=NC(=O)OCc3ccc(O[C@@H]4O[C@H](C(=O)O)[C@@H](O)[C@H](O)[C@H]4O)c(C(=O)NCCOCCOCCN(C)C)c3)c21 (stereo partly drawn) [Compound 376] | 6.54 |  |  |
| CCn1nc(C)cc1C(=O)Nc1nc2cc(C(N)=O)cc(OC)c2n1C/C=C/Cn1c(NC(=O)c2cc(C)nn2CC)nc2cc(C(N)=O)cc(OC/C=C/CN3CCCN3C(=O)OCc3ccc(O[C@@H]4O[C@H](C(=O)O)[C@@H](O)[C@H](O)[C@H]4O)c(C(=O)NCCOC)c3)c21 [Compound 419] | 7.42 |  |  |
| CCn1nc(C)cc1C(=O)Nc1nc2cc(C(N)=O)cc(OC)c2n1C/C=C/Cn1c(NC(=O)c2cc(C)nn2CC)nc2cc(C(N)=O)cc(OC/C=C/Cn3cc(NC(=O)OCc4ccc(O[C@@H]5O[C@H](C(=O)O)[C@@H](O)[C@H](O)[C@H]5O)c(C(=O)NCCOCCOCCOCCOCCOCC(=O)O)c4)cn3)c21 [Compound 285] | 7.48 | 9.52 |  |

These reach a higher pEC50 (hSTING-WT (R232)). Values come first.

| pEC50 (hSTING-WT (R232)) | pEC50 (human STING) | Compound | further results |
| --- | --- | --- | --- |
| 7.79 | 9.72 | CCn1nc(C)cc1C(=O)Nc1nc2cc(C(N)=O)cc(OC)c2n1C/C=C/Cn1c(NC(=O)c2cc(C)nn2CC)nc2cc(C(N)=O)cc(OC/C=C/Cn3cc(NC(=O)OCc4ccc(O[C@@H]5O[C@H](CO)[C@H](O)[C@H](O)[C@H]5O)c(C(=O)NCCOCCOCCN(C)C)c4)cn3)c21 [Compound 337] |  |
| 8.35 |  | CCn1nc(C)cc1C(=O)Nc1nc2cc(C(N)=O)cc(OC)c2n1C/C=C/Cn1c(NC(=O)c2cc(C)nn2CC)nc2cc(C(N)=O)cc(OCCc3ccc(NC(=O)OCc4ccc(O[C@@H]5O[C@H](C(=O)O)[C@@H](O)[C@H](O)[C@H]5O)c(C(=O)NCCOC)c4)cc3)c21 [Compound 239] |  |
| 8.12 |  | CCn1nc(C)cc1C(=O)Nc1nc2cc(C(N)=O)cc(OC)c2n1C/C=C/Cn1c(NC(=O)c2cc(C)nn2CC)nc2cc(C(N)=O)cc(OC/C=C/Cn3cc(NC(=O)OCc4ccc(O[C@@H]5O[C@H](C(=O)O)[C@@H](O)[C@H](O)[C@H]5O)c(C(=O)NCCOCCOCCN=[N+]=[N-])c4)cn3)c21 [Compound 367] |  |
| 8.14 | 9.57 | CCn1nc(C)cc1C(=O)Nc1nc2cc(C(N)=O)cc(OC)c2n1C/C=C/Cn1c(NC(=O)c2cc(C)nn2CC)nc2cc(C(N)=O)cc(OC/C=C/Cn3cc(NC(=O)OCc4ccc(O[C@@H]5O[C@H](C(=O)O)[C@@H](O)[C@H](O)[C@H]5O)c(C(=O)O)c4)cn3)c21 [Compound 299] |  |
| 7.72 |  | CCn1nc(C)cc1C(=O)Nc1nc2cc(C(N)=O)cc(OC)c2n1C/C=C/Cn1c(NC(=O)c2cc(C)nn2CC)nc2cc(C(N)=O)cc(OC/C=C/Cn3cc(NC(=O)OCc4ccc(O[C@@H]5O[C@H](C(=O)O)[C@@H](O)[C@H](O)[C@H]5O)c(C(=O)NCCOC)c4)cn3)c21 [Compound 272] |  |
| 8.05 | 9.59 | CCn1nc(C)cc1C(=O)Nc1nc2cc(C(N)=O)cc(OC)c2n1C/C=C/Cn1c(NC(=O)c2cc(C)nn2CC)nc2cc(C(N)=O)cc(OC/C=C/Cn3cc(NC(=O)OCc4ccc(O[C@@H]5O[C@H](C(=O)O)[C@@H](O)[C@H](O)[C@H]5O)c(C(=O)NCCOCCOCCN5CCOCC5)c4)cn3)c21 [Compound 291] |  |
| 8.17 |  | CCn1nc(C)cc1C(=O)Nc1nc2cc(C(N)=O)cc(OC)c2n1C/C=C/Cn1c(NC(=O)c2cc(C)nn2CC)nc2cc(C(N)=O)cc(OCCc3ccc(NC(=O)OCc4ccc(O[C@@H]5O[C@H](C(=O)O)[C@@H](O)[C@H](O)[C@H]5O)c(C(=O)NCCOCCOCCN(C)C)c4)cc3)c21 [Compound 262] |  |
| 8.44 | 10.40 | CCn1nc(C)cc1C(=O)Nc1nc2cc(C(N)=O)cc(OC)c2n1C/C=C/Cn1c(NC(=O)c2cc(C)nn2CC)nc2cc(C(N)=O)cc(OC/C=C/Cn3cc(NC(=O)OCc4ccc(O[C@@H]5O[C@H](CO)[C@H](O)[C@H](O)[C@H]5O)c(C(=O)NCCOC)c4)cn3)c21 [Compound 320] |  |
| 7.98 |  | C#CCNC(=O)c1cc(COC(=O)Nc2cnn(C/C=C/COc3cc(C(N)=O)cc4nc(NC(=O)c5cc(C)nn5CC)n(C/C=C/Cn5c(NC(=O)c6cc(C)nn6CC)nc6cc(C(N)=O)cc(OC)c65)c34)c2)ccc1O[C@@H]1O[C@H](C(=O)OC)[C@@H](OC(C)=O)[C@H](OC(C)=O)[C@H]1OC(C)=O [Compound 347] |  |
| 8.27 | 9.74 | CCn1nc(C)cc1C(=O)Nc1nc2cc(C(N)=O)cc(OC)c2n1C/C=C/Cn1c(NC(=O)c2cc(C)nn2CC)nc2cc(C(N)=O)cc(OC/C=C/Cn3cc(NC(=O)OCc4ccc(O[C@@H]5O[C@H](CO)[C@H](O)[C@H](O)[C@H]5O)c(C(=O)NCCOCCOCCO)c4)cn3)c21 [Compound 307] |  |
